Data taken from US20260034192A1 (University of Saskatchewan, priority 2022, published 2026).
Several values for one entry are separate records, joined by “and”; a condition that tells them apart may be missing. Identical values can stand only once. Entries after “also recorded” stand apart in the source; their conditions may differ. Square brackets hold non-standard residues; d marks the D form. Peptide text beside a SMILES is read from it. dPhe(4-Cl) = N[C@H](Cc1ccc(Cl)cc1)C(=O)O; d2Nal = N[C@H](Cc1ccc2ccccc2c1)C(=O)O; dCit = NC(=O)NCCC[C@@H](N)C(=O)O; d3Pal = N[C@H](Cc1cccnc1)C(=O)O

Experiments:
alpacas = experiment: Alpaca random day study, single Cetrorelix injection (Example 3); format: in vivo; details: for Duration from treatment to next wave emergence, mean / Variance of duration from treatment to wave emergence (synchrony): alpacas, n = 15, single i/m 1.5 mg on random day of wave
Protocol: Methods: Ultrasonographic methods and follicular endpoint recording were similar to those described in Example 2. Follicular endpoints were obtained from alpacas (n=15) before and after treatment, therefore each animal acts as its own control. A fixed calendar day (July 16) was pre-assigned for Cetrorelix treatment. Daily transrectal ultrasonography was performed (n=15 alpacas) from May 31 to June 16. This examination period was used to record the variance in wave emergence from a fixed calendar date (May 31) without giving treatment (control period). Animals were at unknown/random day of the wave at the beginning of this 17-day time-window (i.e., longer than one natural inter-wave interval); therefore, all animals were expected to have at least one wave emergence encompassing this period. All alpacas were treated with a single intramuscular injection of 1.5 mg (3 mL) Cetrorelix acetate on July 16 and daily ultrasound examinations continued from the day of treatment until Day 3 after the next (post-treatment) wave emergence (treatment period). Synchrony of wave emergence was compared between the control period and the treatment period.
Statistical analyses: A Proc Mixed repeated measures analysis of variance (SAS version 9.4) was performed to compare serial data (follicle size and follicle numbers changes over days) and ANOVA or paired T-test were used for single-point numerical measurements. Count data were compared using Fisher's Exact test. Synchrony of the wave emergence was compared using Barlett's and Levene's tests of homogeneity of the variance.

bovine pituitary cells = experiment: GnRH-induced LH secretion of bovine pituitary cells in vitro (Example 9); format: cell-based; details: 300 μg cetrorelix, 340 μg Degarelix, 300 ug Abarelix, 130 μg Relugolix
Protocol: Methods: The heads of mature, non-pregnant cows (n=4) were collected from a local abattoir and the pituitary glands were dissected within 60 minutes of slaughter. Immediately following the dissection, the pituitaries were submerged into ice-cold collection medium. The pituitaries were washed 3 times in collection media and the neurohypophysis was dissected from the adenohypophysis. Using a scalpel, the adenohypophysis (anterior pituitary) was sliced into 1 mm×1 mm pieces and transferred to a 50 mL falcon tube containing DMEM medium with 0.5% BSA. The tissue pieces were washed by manually agitating the tube for 1 minute. The tissue pieces were allowed to settle to the bottom of the tube, then the supernatant was discarded. The macerated pieces were transferred to a 15 mL falcon tube with the dissociation medium and incubated at 37° C. for 60 minutes. Every 10 minutes the tube was vortexed for 1 minute to ensure the tissue was completely dissociated. The dissociation media was inactivated using DMEM with 10% SFB then manually agitating the tube for 1 minute. The dissociated cells were placed in a 40 μm cell strainer to remove the undigested tissue and placed into two 15 mL falcon tubes. The cells were centrifuged at 200×g for 10 minutes and the supernatant was discarded. The cells were washed three times by resuspending in DMEM solution with red blood cell lysing buffer followed by centrifuged at 200×g for 10 minutes. Then the cells were washed with DMEM solution and centrifuged at 200×g for 10 minutes. Following the last centrifugation, the cells were resuspended in DMEM, and the trypan blue test was used to determine the cell count and assess viability. DMEM with 10% fetal bovine serum (FBS) was treated with 10% charcoal-dextran and passed through a 0.2 μm filter. The cells were then plated in a 24-well tissue culture plate with a concentration of 1×10^6 viable cells per well and incubated at 37° C. for 24 hours. The following day, to starve the cells, the culture media was replaced with DMEM without FBS and left to incubate for another 24 hours.
Treatments: Based on the results from the pilot study, the selected concentration for Cetrorelix (cetrorelix acetate) was 300 μg. The cetrorelix was dissolved in trace levels of DMSO then dissolved in ultrapure water. To standardize the treatments, the nanomole concentration of each GnRH antagonist were matched with the cetrorelix nanomole concentration. The final concentration used for further experiments were: 300 μg for cetrorelix, 340 μg for Degarelix (Degarelix acetate), 300 ug for Abarelix (Abarelix acetate). Both degarelix and abarelix were dissolved ultrapure water. The equivalent Relugolix nanomole concentration was 130 μg which was dissolved in methanol. Treatment cells were preincubated for 60 minutes with either Cetrorelix, Degarelix, Relugolix or Abarelix. Following the preincubation, the cells were incubated for 30 minutes with either 1 nM or 10 nM of GnRH (Gonadorelin, Fertagyl, Merck Animal Health). GnRH doses were based on pituitary study by Paolicchi et al. 1999). The media were collected and centrifuged at 200×g for 10 minutes to remove the cells. Positive (Control) group was only treated with 1 nM and 10 nM of GnRH to determine the maximum LH secretion. LH concentrations in the culture medium was measured by a commercial bovine specific ELISA kit and reported as mIU/ml of medium.

[1] = test system: GnRH-induced plasma LH levels and ovulation; experiment: GnRH challenge in heifers pre-treated with GnRH antagonists: plasma LH and ovulation (Example 10); format: in vivo, cattle; details: for Plasma LH response to GnRH challenge: heifers pre-treated with antagonist 60 minutes before GnRH injection
Protocol: Methods: Pubertal heifers (n=10) with a functional CL were selected at the Federal University of Santa Maria. Heifers were administered an intramuscular (i/m) injection of prostaglandin F2a analog (PGF; Lutalyse 5 ml or Estrumate 2 ml) to induce CL regression. Heifers were randomly placed into 4 treatment groups at the time of PGF injection: Trt1 (n=2, 3 mg of Abarelix); Trt2 (n=2, 3 mg of Degarelix), Trt3 (n=2, 3 mg of Relugolix) and Trt 4 (n=4; Cetrorelix 3 mg). Heifers were treated with these GnRH antagonists 1.5 days (36 hr) after the PGF injection and the GnRH antagonist treatment time point was defined as −60 mins. Heifers were treated with GnRH ([…] of Fertagyl i/m) at 0 mins to induce ovulation. Jugular venipuncture plasma samples were collected every 60 minutes for 3 hours (from −60 min to 120 minutes, with t=0 min when GnRH is administered). Plasma samples were kept at 4C overnight and LH analysis was performed the next day using a bovine-specific ELISA commercial kit. Transrectal ultrasonography was conducted to the time of GnRH injection (Time 0 hr) and 2 days later (48 hr after GnRH injection) to record the size of dominant follicle and to detect ovulation after treatment.

[2] = individual heifers, 3 mg antagonist 60 min before GnRH
[3] = individual heifers, after GnRH injection, 3 mg antagonist at −60 min

In the case of `CC(=O)N[C@H](Cc1ccc2ccccc2c1)C(=O)N[C@H](Cc1ccc(Cl)cc1)C(=O)N[C@H](Cc1cccnc1)C(=O)N[C@@H](CO)C(=O)N[C@@H](Cc1ccc(O)cc1)C(=O)N[C@H](CCCNC(N)=O)C(=O)N[C@@H](CC(C)C)C(=O)N[C@@H](CCCNC(=N)N)C(=O)N1CCC[C@H]1C(=O)N[C@H](C)C(N)=O` [Cetrorelix, N-acetyl-3-(2-naphthyl)-D-alanyl-4-chloro-D-phenylalanyl-3-(3-pyridyl)-D-alanyl-L-seryl-L-tyrosyl-D-citrullyl-L-leucyl-L-arginyl-L-prolyl-D-alaninamide] (Ac-[d2Nal][dPhe(4-Cl)][d3Pal]SY[dCit]LRP[dA]-NH2), the “Duration from treatment to next wave emergence, mean” value (“Duration from treatment … mean” below) (alpacas) is reported as 5.33 ± 0.70 days and 5.33 days, the “Variance of duration from treatment to wave emergence (synchrony)” value (alpacas) is reported as 7.38 and the “Duration from treatment … mean” value (alpacas; listed as Cetro) is reported as 5.33 days. The “Variance of duration from treatment to wave emergence (synchrony)” value (alpacas; listed as Cetro) was 7.381, the “Duration from treatment … mean” value (alpacas; listed as cetrorelix) was “about 5.33±0.70 days” and the “Duration from Treatment to Wave Emergence” value (alpacas; individual alpacas, single i/m injection of 1.5 mg Cetrorelix on random day of wave) was 11 days and 3 days (2×) and 4 days (6×) and 9 days and 1 days and 6 days and 8 days (2×) and 7 days. For the same compound, the “LH conc in medium” value (bovine pituitary cells; challenged with 1 nM GnRH 30 minutes after 60 minutes preincubation) was 0.09 mIU/mL, the “LH conc in medium” value (bovine pituitary cells; challenged with 10 nM GnRH 30 minutes after 60 minutes preincubation) was 0.50 mIU/mL and the “Plasma LH response to GnRH challenge” value [1] was “did not register an increase in LH”. For the same compound, the “Plasma LH response to GnRH challenge” value ([1]; listed as cetrorelix) was “LH levels remained unchanged; also recorded: block the GnRH-induced LH release”, the “Ovulation (Yes/No) within 48 hr of GnRH treatment” value ([1]; heifers, 3 mg antagonist 60 min before GnRH) was “No” and the “Ovulation (Yes/No) within 48 hr of GnRH treatment” value ([1]; heifers, 3 mg antagonist 60 min before GnRH, listed as cetrorelix) was “prevent GnRH-induced ovulations”. The “Plasma LH concentration at 60 minute, group Mean” value ([1]; heifers, after GnRH injection) was 12.83 mIU/ml, the “Plasma LH concentration at 120 minute, group Mean” value ([1]; heifers, after GnRH injection) was 12.18 mIU/ml and the “Plasma LH concentration at −60 minute, group Mean” value ([1]; heifers, time of 3 mg GnRH antagonist injection) was 11.63 mIU/ml. For the same compound, the “Plasma LH concentration at 0 minute, group Mean” value ([1]; heifers, time of GnRH injection) was 10.07 mIU/ml, the “Dominant follicle diameter (mm) 48 hr after GnRH Injection” value [1, 2] was 9.8 mm and 12 mm and the “Dominant follicle diameter (mm) at GnRH injection” value [1, 2] was 7.5 mm and 10.5 mm. For the same compound, the “Plasma LH concentration at 60 minute” value [1, 3] was 18.33 mIU/ml and 22.72 mIU/ml and 5.12 mIU/ml and 5.15 mIU/ml, the “Plasma LH concentration at 120 minute” value [1, 3] was 23.74 mIU/ml and 15.04 mIU/ml and 4.60 mIU/ml and 5.32 mIU/ml and the “Plasma LH concentration at −60 minute” value ([1]; individual heifers, time of 3 mg GnRH antagonist injection, 60 mins before GnRH) was 24.29 mIU/ml and 12.03 mIU/ml and 5.24 mIU/ml and 4.96 mIU/ml. The “Plasma LH concentration at 0 minute” value ([1]; individual heifers, time of GnRH injection, 3 mg antagonist at −60 min) was 18.10 mIU/ml and 12.23 mIU/ml and 5.29 mIU/ml and 4.66 mIU/ml.
